Here are results for six compounds from US6806285B1, “5-Hydroxyl indole derivatives for treating glaucoma” (Alcon, Inc., priority 2000, dated 2004).

SMILES strings stand for the structures.

Series [1] in a line: Solution stability, accelerated stress test. The series is classed as physicochemical. Particulars: 14 days; for Predicted Shelf Life: 25° C., loss of 10% compound (T90), extrapolated from 75° C., pH 5 0.025 M sodium citrate buffer, HPLC. As for the experimental part:
The solution stability of the example compounds were assessed using an accelerated stress test. The compound was dissolved in pH 5, 0.025 M sodium citrate buffer (5˜15 μg/mL). In duplicate, 2 mL of each solution in a glass vial was heated at 75° C. for 14 days. Samples were analyzed periodically using HPLC and % degradation was calculated for the sample. The predicted shelf life (25° C.) was based on the loss of 10% compound (T90) and the fact that the rate of degradation for a first order reaction decreased 50% for every 10° C. drop in temperature.

In series [2] the test system is hypertensive cynomolgus monkeys. The note with it: dose 250 μg, cited from earlier work.

On to `CC(N)Cc1c[nH]c2ccc(OC(=O)C(C)(C)C)cc12` (stereo not drawn) [Example 3, 2,2-Dimethyl-propionic acid 3-(2-aminopropyl)-1H-indol-5yl ester], for which the “Predicted Shelf Life” value in series [1] is recorded as 11.3 months.

In the case of `CC(N)Cc1c[nH]c2ccc(OC(=O)C3CC3)cc12` (stereo not drawn) [Example 4, Cyclopropanecarboxylic acid 3-(2-aminopropyl)-1H-indol-5yl ester], in series [1], the “Predicted Shelf Life” value is 5.81 months.

As to `NCCc1c[nH]c2ccc(O)cc12` [Serotonin], in series [2], the “Percent IOP Reduction ± SEM, 1 hour after dose” value is given as 13.3 ± 5.31%; the “Percent IOP Reduction ± SEM, 3 hours after dose” value is listed as 18.0 ± 5.12%; the “Percent IOP Reduction ± SEM, 6 hours after dose” value was 2.0 ± 7.39%.

With `CC(N)Cc1c[nH]c2ccc(O)cc12` (stereo not drawn) [α-methylserotonin, 3-(2-aminopropyl)-1H-indol-5-ol], in series [1], the “Predicted Shelf Life” value is 2.6 months. For the same compound, in series [2], the “Percent IOP Reduction ± SEM, 1 hour after dose” value is 14.2 ± 4.39%; the “Percent IOP Reduction ± SEM, 3 hours after dose” value is 25.8 ± 5.16%; the “Percent IOP Reduction ± SEM, 6 hours after dose” value is recorded as 30.8 ± 7.72%.

Consider `CC(N)Cc1c[nH]c2ccc(OC(=O)C(C)C)cc12` (stereo not drawn) [Example 2, Isobutyric acid 3-(2-aminopropyl)-1H-indol-5yl ester], for which the “Predicted Shelf Life” value in series [1] was 3.36 months.

In the case of `CCC(=O)Oc1ccc2[nH]cc(CC(C)N)c2c1` (stereo not drawn) [Example 1, Propionic acid 3-(2-aminopropyl)1H-indol-5-yl ester], in series [1], the “Predicted Shelf Life” value is reported as 1.32 months. Moreover, the “Stability relative to the parent compound α-methylserotonin (oxidative degradation and ester hydrolysis)” value in series [1] (stress conditions: pH 5 citrate buffer, 75° C.) is “did not provide an increase in the stability of the parent compound”.
